Measured values taken from patent US8987257B2 (Novartis AG, priority 2011, dated 2015).
pEC50, pIC50: −log10 of the molar value.

Legend:
[1] = target: FRAP1/mTOR (Homo sapiens (Human), UniProt P42345); experiment: Test 2: mTOR Biochemical Assay (FRAP1/mTOR TR-FRET tracer assay); type: binding; settings: mTOR Kinase Tracer 314
Description: IC50s for mTOR interacting compounds were assessed using the FRAP1/mTOR TR-FRET tracer assay (Invitrogen by Life Technologies). […] Compounds were serially diluted in DMSO (12-point, 4× dilution factor) and 1 μL of diluted compound was then added to each well and mixed by pipetting using a Biomek FX (Beckman Coulter).

[2] = test system: constitutively active mTOR; experiment: Test 3: TSC Assay (high content imaging of phospho-S6 (240/244) in TSC1−/− MEFs); type: cell-based; settings: Mus musculus, pS6 240/244 staining, 2 hrs compound treatment
Description: This assay generates IC50 values for compounds that inhibit mTOR.
Quantification of pS6 Staining Using High-Content Imaging and Analysis
Day 0: Cell plating. Subconfluent TSC1−/− MEFs are harvested by trypsinization, resuspended in growth medium, and counted. […] The plates are briefly spun down and placed at 37° C. and 5% CO2. • 2. Day 1: Cell plates are washed into a PBS starve solution (contains glucose, sodium bicarbonate, HEPES and phenol red) using a 384-well plate washer. The wash protocol aspirates the volume down to 30 μL/well before dispensing 60 μL/well of the PBS starve solution. Aspiration and dispensing steps are repeated 8 times and a final volume of 30 μL/well is left. The cell plates are placed at 37° C. and 5% CO2 for 2 hrs. • Compound treatment. Compound dose responses are prepared in DMSO. The dose responses are then diluted 1:50 in medium. 10 ul of the diluted compound is added to 30 ul of cells, yielding a final 1:200 dilution of the original compound and final of 0.5% DMSO. Compound-treatments are performed in triplicates. The plates are placed at 37° C. and 5% CO2 for 2 hrs. Cells are then fixed by adding 10 μL/well 5× concentrated Mirsky's fixative. […] The cell plates are briefly spun down and incubated for 1 h at room temperature. Cells are then washed using a 384-well plate washer using a protocol which aspirates the volume down to 30 μL/well before dispensing 60 μL/well 1×TBS. Aspiration and dispensing steps are repeated 8 times and then an additional aspiration step leaves a final volume of 10 μL/well. Block buffer (1×TBS+0.1% Triton X-100+0.1% BSA) is then added at 25 μL/well and the plates are incubated at room temperature for 30 min. The cell plates are then aspirated down to 10 μL/well. […] Plates are incubated overnight at 4° C. • 3. […] The bottom of the plate is cleaned with 70% ethanol and then imaged using the InCell 1000 automated epifluorescence microscope. […] Cy5 images are acquired using an excitation of 620 nm (Chroma 620—60× filter), an emission of 700 nm (Chroma HQ700—75M filter) and an exposure time of 200 ms. A double band pass mirror is used for all images. • 4. Image analysis: The InCell Analysis software is used to analyze the images using the Dual Object algorithm. […] The Cy5 fluorescence intensity inside the collar is measured (cell intensity) and results are reported on an “Average per cell” basis. • 5. IC50 calculation: IC50s are calculated by plotting the cell intensity values on the y-axis with dose response values on the x-axis. IC50 values represent compound potency against mTOR.

[3] = target: PI3Kα (Homo sapiens (Human), UniProt P42336); experiment: Test 1: PI3 Kinase Assay (PI3K KinaseGlo assay); type: biochemical; settings: 1 μM ATP
Sequence of PI3Kα (P42336 other isoform, or with tags, fused parts or gaps): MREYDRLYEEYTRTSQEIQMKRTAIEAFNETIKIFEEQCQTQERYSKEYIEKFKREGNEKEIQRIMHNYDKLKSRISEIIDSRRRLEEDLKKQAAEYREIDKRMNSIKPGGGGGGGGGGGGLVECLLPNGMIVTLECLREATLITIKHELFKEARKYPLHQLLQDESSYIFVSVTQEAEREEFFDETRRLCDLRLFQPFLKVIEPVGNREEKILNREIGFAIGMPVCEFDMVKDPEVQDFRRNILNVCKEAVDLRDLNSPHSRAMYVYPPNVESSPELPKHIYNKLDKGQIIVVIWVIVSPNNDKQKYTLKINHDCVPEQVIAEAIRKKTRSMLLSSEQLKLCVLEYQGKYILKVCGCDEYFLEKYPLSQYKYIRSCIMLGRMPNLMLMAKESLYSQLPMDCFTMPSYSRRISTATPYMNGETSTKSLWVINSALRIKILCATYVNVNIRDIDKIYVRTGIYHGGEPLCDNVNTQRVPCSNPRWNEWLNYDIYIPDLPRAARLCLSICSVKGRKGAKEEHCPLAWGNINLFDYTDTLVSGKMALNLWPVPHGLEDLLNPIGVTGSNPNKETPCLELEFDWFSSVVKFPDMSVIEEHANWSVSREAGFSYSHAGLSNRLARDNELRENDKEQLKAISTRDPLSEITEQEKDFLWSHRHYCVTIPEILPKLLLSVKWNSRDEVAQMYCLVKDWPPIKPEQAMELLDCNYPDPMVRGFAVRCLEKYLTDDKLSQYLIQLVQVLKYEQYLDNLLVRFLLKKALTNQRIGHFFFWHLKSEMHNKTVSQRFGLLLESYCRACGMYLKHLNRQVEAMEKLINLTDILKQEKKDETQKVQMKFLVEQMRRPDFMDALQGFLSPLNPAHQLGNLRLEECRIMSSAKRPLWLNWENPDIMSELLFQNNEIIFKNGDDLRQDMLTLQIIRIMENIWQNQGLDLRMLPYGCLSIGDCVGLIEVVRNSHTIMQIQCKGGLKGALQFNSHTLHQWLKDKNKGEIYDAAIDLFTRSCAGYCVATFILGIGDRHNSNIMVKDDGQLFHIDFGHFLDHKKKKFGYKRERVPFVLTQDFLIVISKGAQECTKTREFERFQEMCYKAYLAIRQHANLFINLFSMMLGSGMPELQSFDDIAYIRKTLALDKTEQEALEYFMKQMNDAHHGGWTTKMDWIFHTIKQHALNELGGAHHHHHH
Description: L-a-phosphatidylinositol (PI), provided as 10 mg/ml solution in methanol, was transferred into a glass tube and dried under nitrogen beam. It was then resuspended in 3% OctylGlucoside (OG) by vortexing and stored at 4° C. The KinaseGlo Luminescent Kinase Assay (Promega, Madison/WI, USA) is a homogeneous HTS method of measuring kinase activity by quantifying the amount of ATP remaining in solution following a kinase reaction.
Kinase reactions were started by addition of 5 μl of ATP-mix containing in a final volume 10 μL 10 mM TRIS-HCl pH 7.5, 3 mM MgCl2, 50 mM NaCl, 0.05% CHAPS, 1 mM DTT and 1 μM ATP, and occurred at room temperature.
The PI3Kα construct is a fusion of p85α iSH2 domain and the respective p110 isoform. The p85α fragment and p110 isoform gene were generated by PCR from first strand cDNA generated by RT-PCR from commercial RNA from placenta, testis and brain as described below.
The p85 fragment was derived from plasmid p1661-2 digested with Nhe/Spe. The p110α fragment derived from its clone was verified by sequencing and used in LR410 as a SpeI/HindIII fragment. For the generation of the baculovirus expression vector LR410 the gateway LR reaction to transfer the insert into the Gateway adapted pBlueBac4.5 (Invitrogen) vector was used. The cloning vector pBlueBac4.5 (Invitrogen) was digested with Nhe/HindIII. […] The two reverse primers overlap and incorporate a 12×Gly linker and the N-terminal sequence of the p110α gene to the SpeI site. The PCR fragment was cloned into pCR2.1 TOPO (Invitrogen). Of the resulting clones, p1661-2 was determined to be correct by sequencing. This plasmid was digested with Nhe and SpeI and the resulting fragment was gel-isolated and purified for sub-cloning.
PI3Kα was purified in two chromatographic steps: immobilized metal affinity chromatography (IMAC) on a Ni sepharose resin (GE Healthcare) and gel filtration utilizing a Superdex 200 26/60 column (GE Healthcare). All buffers were chilled to 4° C. and lysis was performed chilled on ice. Column fractionation was performed at room temperature.

[4] = test system: H4 mCherry-GFP-LC3 cells; experiment: Test 4: Autophagy Assay (mCherry-GFP-LC3 reporter, high-content imaging); type: cell-based; settings: Homo sapiens, 16-18 h
Description: Autophagy is a catabolic pathway that degrades bulk cytosol in lysosomal compartments enabling amino acids and fatty acids to be recycled. […] To quantify autophagy induction by mTOR inhibitors, we use a mCherry-GFP-LC3 reporter which is amenable to retroviral delivery into mammalian cells, stable expression and analysis by fluorescence microscopy.
Described hereinafter is an imaging protocol and image recognition algorithm to visualize and measure changes in the autophagic pathway.
Quantification of Autophagy Using High-Content Imaging and Analysis
• 1. Day 0: Cell plating. Subconfluent H4 mCherry-GFP-LC3 cells are harvested by trypsinization, resuspended in growth medium, and counted (H4 cells: Human neuroglioma cell line (ATCC)). A cell suspension of 66′000 cells/mL is prepared and 30 μL are added into the wells of a 384-well plate using an electronic multichannel pipette. […] The cell plates are briefly spun down and placed at 37° C. and 5% CO2. • 2. Day 1: Compound treatment. Compound dose responses are prepared in DMSO. The dose responses are then diluted 1:50 in medium. 10 ul of the diluted compound is added to 30 ul of cells, yielding a final 1:200 dilution of the original compound and final of 0.5% DMSO. Compound-treatments are performed in triplicates. The 384-well plates are placed at 37° C. and 5% CO2. Compound treatment is performed for 16-18 h (see Note 1). • 3. Day 2: Cell fixation. Cells are fixed by adding 10 μL/well 5× concentrated Mirsky's fixative supplemented with 25 μg/mL Hoechst33342. […] The 384-well plate is briefly spun down and incubated for 1 h at room temperature. Cells are then washed using a 384-well plate washer using a protocol which aspirates the volume down to 10 μL/well before dispensing 100 μL/well 1×TBS. Aspiration and dispensing steps are repeated 4 times and a final volume of 100 μL/well is left. The plate is sealed using an adhesive PCR foil. • 4. Imaging. The bottom of the plate is cleaned with 70% ethanol and then imaged using the InCell 1000 automated epifluorescence microscope. 20× magnification is used and 4 different areas (fields) are imaged per well, this typically captures a total of around 400 cells per well. Hoechst33342 images are acquired using an excitation of 360 nm (D360—40× filter), an emission of 460 nm (HQ460—40M filter) and an exposure time of 150 ms. GFP images are acquired using an excitation of 475 nm (S47520× filter), an emission of 535 nm (HQ535—50M filter) and an exposure time of 1 s. mCherry images are acquired using an excitation of 535 nm (HQ535—50× filter), an emission of 620 nm (HQ620—60M filter) and an exposure time of 1 s. A quadruple band pass mirror is used for all images. • 5. Image analysis. The InCell Analysis software is used to analyze the images using the Multi Target Analysis algorithm. First, nuclei are detected in the Hoechst33342 image using top-hat segmentation and a minimal nuclear area of 50 μm^2. Cells are defined using a collar of 10 μm around the nuclei. Second, puncta (organelles) are identified in the mCherry image inside the cells using multi-top-hat segmentation. Third, the mask of the mCherry puncta is transferred onto the GFP image. Fourth, the GFP fluorescence intensity inside the mCherry puncta mask is measured (reference intensity). • 6. The ‘organelles’ parameter reflects mCherry-positive puncta of the mCherry-GFP-LC3 reporter and is used to calculate ‘LC3 puncta/cell’. For this purpose, the number of organelles is calculated per cell and averaged over all the cells in a given well (average per cell basis). mCherry-positive LC3 puncta numbers (y-axis) are plotted against the compound dose response values (x-axis) and EC50 values are calculated for each compound. EC50 values represent compound potency in terms of autophagy activation (e.g. increase in mCherry-positive LC3 puncta count). Notes • 1. Autophagy-modulation and redistribution of mCherry-GFP-LC3 can be already observed after a compound treatment time of 3-4 h. […]

[5] = Table 1, mCherry-positive LC3 puncta/cell
[6] = Table 4 (unit inferred), mCherry-positive LC3 puncta/cell

Sequence of FRAP1/mTOR (P42345 1360-2549): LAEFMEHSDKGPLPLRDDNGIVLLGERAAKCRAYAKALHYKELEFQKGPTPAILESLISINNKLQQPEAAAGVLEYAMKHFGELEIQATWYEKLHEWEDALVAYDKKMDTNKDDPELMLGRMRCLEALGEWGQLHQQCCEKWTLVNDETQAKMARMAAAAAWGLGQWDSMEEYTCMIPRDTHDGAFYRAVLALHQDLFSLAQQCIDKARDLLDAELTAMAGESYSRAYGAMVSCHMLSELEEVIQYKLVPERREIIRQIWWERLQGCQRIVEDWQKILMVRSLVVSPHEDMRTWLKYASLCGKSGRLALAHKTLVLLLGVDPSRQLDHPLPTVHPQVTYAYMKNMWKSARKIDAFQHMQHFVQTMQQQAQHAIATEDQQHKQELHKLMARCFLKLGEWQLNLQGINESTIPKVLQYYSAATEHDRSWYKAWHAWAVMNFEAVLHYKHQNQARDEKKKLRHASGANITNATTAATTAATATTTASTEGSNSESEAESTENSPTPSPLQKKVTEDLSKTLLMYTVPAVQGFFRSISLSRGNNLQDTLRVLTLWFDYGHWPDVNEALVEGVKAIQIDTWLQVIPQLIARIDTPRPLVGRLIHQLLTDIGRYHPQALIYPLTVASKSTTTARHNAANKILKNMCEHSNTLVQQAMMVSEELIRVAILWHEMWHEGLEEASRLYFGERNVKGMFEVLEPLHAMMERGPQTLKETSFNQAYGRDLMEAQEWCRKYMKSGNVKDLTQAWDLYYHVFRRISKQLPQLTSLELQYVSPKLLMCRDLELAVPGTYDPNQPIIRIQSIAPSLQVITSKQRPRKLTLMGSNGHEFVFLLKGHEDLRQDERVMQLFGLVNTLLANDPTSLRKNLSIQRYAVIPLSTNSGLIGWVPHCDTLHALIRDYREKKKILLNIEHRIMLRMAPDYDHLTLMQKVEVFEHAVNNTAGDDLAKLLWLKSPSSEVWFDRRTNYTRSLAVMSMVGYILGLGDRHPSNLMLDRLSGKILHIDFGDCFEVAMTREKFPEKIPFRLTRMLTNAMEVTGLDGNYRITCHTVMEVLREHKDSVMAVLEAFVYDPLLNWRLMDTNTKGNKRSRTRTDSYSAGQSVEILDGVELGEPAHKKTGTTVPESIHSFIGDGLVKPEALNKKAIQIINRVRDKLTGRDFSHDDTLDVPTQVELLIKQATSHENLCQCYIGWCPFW

SMILES	pIC50 [1]	pIC50 [2]	pIC50 [3]	pEC50 [4, 5]	pEC50 [4, 6]
COc1ccc(-c2nc3c(N4CCOC[C@@H]4C)nc(N4CCOCC4)nc3[nH]2)cc1C(=O)O [Example 9, 2-Methoxy-5-[6-((S)-3-methyl-morpholin-4-yl)-2-morpholin-4-yl-9H-purin-8-yl]-benzoic acid]	5.49	5.14	< 5.04	< 5.00	
C[C@H]1COCCN1c1nc(N2CCOCC2)nc2[nH]c(-c3cc(CO)ccc3Cl)nc12 [Example 10, {4-Chloro-3-[6-((S)-3-methyl-morpholin-4-yl)-2-morpholin-4-yl-9H-purin-8-yl]-phenyl}-methanol]	5.74	5.24	6.14	< 5.00	
C[C@@H]1COCCN1c1nc(N2CCOC[C@H]2C)c2nc(-c3cccc4[nH]ccc34)[nH]c2n1 [Example 15, 8-(1H-Indol-4-yl)-2,6-bis-((R)-3-methyl-morpholin-4-yl)-9H-purine]	8.05	7.21	5.34	5.75	
C[C@@H]1COCCN1c1nc(N2CCOC[C@@H]2C)c2nc(-c3cccc4[nH]ccc34)[nH]c2n1 [Example 18, 8-(1H-Indol-4-yl)-2-((R)-3-methyl-morpholin-4-yl)-6-((S)-3-methyl-morpholin-4-yl)-9H-purine]	7.34	7.15	5.30	5.60	
C[C@H]1COCCN1c1nc(N2CCOCC2)c2nc(-c3ccc4cc[nH]c4c3)[nH]c2n1 [Example 49]	6.43	6.17	5.35		< 6.30
C[C@H]1COCCN1c1nc(N2CCOC[C@@H]2C)c2nc(-c3cccc4[nH]ccc34)[nH]c2n1 [Example 22, 8-(1H-Indol-4-yl)-2,6-bis-((S)-3-methyl-morpholin-4-yl)-9H-purine]	8.30	6.95	5.23	6.12	
COC1CCN(c2nc(N3CCOCC3)c3nc(-c4cccc5[nH]ccc45)[nH]c3n2)CC1 [Example 25, 8-(1H-Indol-4-yl)-2-(4-methoxy-piperidin-1-yl)-6-morpholin-4-yl-9H-purine]	6.76	6.34	5.68	< 6.15	
COc1cc(CO)cc(-c2nc3c(N4CCOC[C@@H]4C)nc(N4CCOC[C@@H]4C)nc3[nH]2)c1 [Example 17, {3-[2,6-Bis-((S)-3-methyl-morpholin-4-yl)-9H-purin-8-yl]-5-methoxy-phenyl}-methanol]	6.40	5.82	6.40	5.50	
CC(O)c1cccc(-c2nc3c(N4CCOC[C@@H]4C)nc(N4CCOCC4)nc3[nH]2)c1 (stereo partly drawn) [Example 12, 1-{3-[6-((S)-3-Methyl-morpholin-4-yl)-2-morpholin-4-yl-9H-purin-8-yl]-phenyl}-ethanol]	5.69	5.71	5.54	< 5.00	
C[C@H]1COCCN1c1nc(N2CCOCC2)nc2[nH]c(-c3ccc(F)c(CO)c3)nc12 [Example 4, {2-Fluoro-5-[6-((S)-3-methyl-morpholin-4-yl)-2-morpholin-4-yl-9H-purin-8-yl]-phenyl}-methanol]	5.85	5.73	5.74	5.81	
c1cc(-c2cc3c(N4CCOCC4)nc(N4CCOCC4)nc3[nH]2)c2cc[nH]c2c1 [Example 56, 6-(1H-Indol-4-yl)-2,4-di-morpholin-4-yl-7H-pyrrolo[2,3-d]pyrimidine]	5.62	6.76	5.70		5.44
C[C@@H]1COCCN1c1nc(N2CC3CCC(C2)O3)nc2[nH]c(-c3cccc4[nH]ccc34)nc12 [Example 46, 8-(1H-Indol-4-yl)-6-((R)-3-methyl-morpholin-4-yl)-2-(8-oxa-3-aza-bicyclo[3.2.1]oct-3-yl)-9H-purine]	7.52	7.00	6.24		6.77
C[C@H]1COCCN1c1nc(N2CCOC[C@@H]2C)c2nc(-c3ccc4cc[nH]c4c3)[nH]c2n1 [Example 14, 8-(1H-Indol-6-yl)-2,6-bis-((S)-3-methyl-morpholin-4-yl)-9H-purine]	8.15	6.46	< 5.04	5.89	
C[C@@H]1COCCN1c1nc(N2CCOC[C@@H]2C)nc2[nH]c(-c3cccc4c3CCN4)nc12 [Example 41, 8-(2,3-Dihydro-1H-indol-4-yl)-2-((S)-3-methyl-morpholin-4-yl)-6-((R)-3-methyl-morpholin-4-yl)-9H-purine]	7.52	6.34	5.47		5.54
C[C@@H]1COCCN1c1nc(N2CCOC[C@H]2C)c2nc(-c3ccc4cc[nH]c4c3)[nH]c2n1 [Example 45, 8-(1H-Indol-6-yl)-2,6-bis-((R)-3-methyl-morpholin-4-yl)-9H-purine]	6.19	6.00	5.15		< 6.40
C[C@H]1COCCN1c1nc(N2CC3CCC(C2)O3)nc2[nH]c(-c3cccc4[nH]ccc34)nc12 [Example 52, 8-(1H-Indol-4-yl)-6-((S)-3-methyl-morpholin-4-yl)-2-(8-oxa-3-aza-bicyclo[3.2.1]oct-3-yl)-9H-purine]	7.30	7.06	6.38		6.41
c1cc(-c2nc3c(N4CCOCC4)nc(N4CCOCC4)nc3[nH]2)c2cn[nH]c2c1 [Example 27, 8-(1H-Indazol-4-yl)-2,6-di-morpholin-4-yl-9H-purine]	6.47	5.14	7.40	5.23	
C[C@@H]1COCCN1c1nc(N2CCOC[C@H]2C)c2nc(-c3cccc4c3CCN4)[nH]c2n1 [Example 42, 8-(2,3-Dihydro-1H-indol-4-yl)-2,6-bis-((R)-3-methyl-morpholin-4-yl)-9H-purine]	7.40	7.00	5.31		5.33
C[C@@H]1COCCN1c1nc(N2CCOC[C@@H]2C)nc2[nH]c(-c3ccc4cc[nH]c4c3)nc12 [Example 44, 8-(1H-Indol-6-yl)-2-((S)-3-methyl-morpholin-4-yl)-6-((R)-3-methyl-morpholin-4-yl)-9H-purine]	6.85	6.41	5.23		6.40
